Source: US20250026766A1, “Thiazolopyridyl Amide Derivatives as DNA Polymerase Theta Inhibitors” (BeiGene, Ltd., priority 2022, published 2025)

These compounds were tested against Pol Theta (1-894) (Homo sapiens (Human), UniProt O75417) (assay: Biochemical Pol Theta (1-894) ATPase IC50 assay (ADP-Glo, ssDNA substrate)). Conditions: ADP-Glo assay with ssDNA substrate, room temperature.
Experimental: Baculovirus Expression of Human POL theta (1-894)
Human POL Theta (1-894)-His-pFastBac1 baculovirus samples were generated using the Bac-to-Bac baculovirus expression system (Invitrogen) according to the manufacturer's protocol. […] Baculovirus amplification was achieved using infected SF9 cells at 1:2000 virus/cells ratios, and grown for 96 hours at 27° C. post-transfection. The expression scaled up for each protein was carried out in the flask 3 L from CORNING. 4 L of 3×10^6 cells/mL Sf9 cells (Expression System, Invitrogen) grown in SF900TM II SFM insect medium (Expression System) were infected with virus stock at 1:200 virus/cell ratios, and grown for 48 hours at 27° C. post-transfection. The infected cell culture was harvested by centrifugation at 6000 rpm for 15 min 4° C. in a SORVALL LYNX6000 centrifuge. The cell pellets were stored at −80° C.
The human POL Theta (1-894)-His produced as described above, were purified from Sf9 baculovirus-infected insect cell paste. The cells were lysed using sonication method, and the lysates were clarified by centrifugation.
Enzymatic reactions of Pol Theta (1-894) were performed using ADP-Glo assay with ssDNA substrate. Pol Theta (1-894) was expressed in baculovirus expression system. The inhibition activities testing for the compound disclosed herein were carried out at room temperature in assay buffer containing 40 mM Tris pH 7.5, 20 mM MgCl2, 1 mM DTT, 0.01% BSA and 0.05% Tween-20. Compounds in DMSO were dispensed into wells of a black 384 well plate (Corning 4514) using D300e digital dispenser (Tecan). The ranges of compounds final concentration were 2.62 nM˜10000 nM. 3 μL 2× enzyme solution containing 12.5 nM enzyme was added to wells. […] After 1 hour reaction, 5 μL ADP-Glo reagent (Promga V9102) was added and incubated for 40 minutes. 10 μL Kinase Detection reagent was added and incubated for 40 minutes. Luminescence was measured on a microplate reader (PHERAstar FSX, BMG labtech). The IC50 values were calculated based on inhibition of enzyme activity in the presence of increasing concentrations of compounds.

Pol Theta (1-894), sequence (O75417 1-894): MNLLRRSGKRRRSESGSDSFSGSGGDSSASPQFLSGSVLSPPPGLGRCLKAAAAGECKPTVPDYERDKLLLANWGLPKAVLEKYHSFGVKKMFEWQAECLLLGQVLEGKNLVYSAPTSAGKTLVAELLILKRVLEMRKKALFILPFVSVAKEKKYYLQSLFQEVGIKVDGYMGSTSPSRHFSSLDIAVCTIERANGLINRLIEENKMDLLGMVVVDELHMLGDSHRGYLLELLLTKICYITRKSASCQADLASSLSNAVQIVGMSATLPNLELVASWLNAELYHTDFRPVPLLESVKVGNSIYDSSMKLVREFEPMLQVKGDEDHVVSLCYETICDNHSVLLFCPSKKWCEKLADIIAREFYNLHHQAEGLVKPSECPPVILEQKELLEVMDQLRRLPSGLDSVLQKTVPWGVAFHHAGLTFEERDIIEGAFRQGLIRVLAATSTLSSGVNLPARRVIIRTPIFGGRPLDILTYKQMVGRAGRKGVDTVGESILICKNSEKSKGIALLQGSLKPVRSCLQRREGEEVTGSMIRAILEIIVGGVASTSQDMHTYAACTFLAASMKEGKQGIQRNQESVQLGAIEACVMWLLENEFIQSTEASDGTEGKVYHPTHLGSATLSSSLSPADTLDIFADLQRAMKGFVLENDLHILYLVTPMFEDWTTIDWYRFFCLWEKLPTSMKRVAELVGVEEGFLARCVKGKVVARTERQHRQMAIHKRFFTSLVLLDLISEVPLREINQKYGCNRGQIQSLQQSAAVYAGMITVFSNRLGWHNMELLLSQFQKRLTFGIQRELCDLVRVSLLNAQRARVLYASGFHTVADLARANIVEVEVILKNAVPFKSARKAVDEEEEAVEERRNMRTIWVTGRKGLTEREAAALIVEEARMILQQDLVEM

| Compound | IC50 [nM] |
| --- | --- |
| Cc1cc(-c2cccc3[nH]ncc23)c(C(=O)Nc2nc3ccc(-c4ccc(C#N)cc4)nc3s2)cn1 [Example 61, N-(5-(4-cyanophenyl)thiazolo[5,4-b]pyridin-2-yl)-4-(1H-indazol-4-yl)-6-methylnicotinamide] | 121 |
| COc1ccccc1-c1cnncc1C(=O)Nc1nc2ccc(C#Cc3ccc(Cl)cc3)nc2s1 [Example 63, N-(5-((4-chlorophenyl)ethynyl)thiazolo[5,4-b]pyridin-2-yl)-5-(2-methoxyphenyl)pyridazine-4-carboxamide] | 31 |
| Cc1cc(-c2ccccc2CO)c(C(=O)Nc2nc3ccc(-c4ccc(C#N)cc4)nc3s2)cn1 [Example 64, N-(5-(4-cyanophenyl)thiazolo[5,4-b]pyridin-2-yl)-4-(2-(hydroxymethyl)phenyl)-6-methylnicotinamide] | 186 |
| COc1ccc(C#N)cc1-c1cc(C)ncc1C(=O)Nc1nc2ccc(OCCN3CCOCC3)nc2s1 [Example 65, 4-(5-cyano-2-methoxyphenyl)-6-methyl-N-(5-(2-morpholinoethoxy)thiazolo[5,4-b]pyridin-2-yl)nicotinamide] | 224 |
| COCc1ccc(OC)c(-c2cc(C)ncc2C(=O)Nc2nc3ccc(-c4ccc(C#N)cc4)nc3s2)c1 [Example 66, N-(5-(4-cyanophenyl)thiazolo[5,4-b]pyridin-2-yl)-4-(2-methoxy-5-(methoxymethyl)phenyl)-6-methylnicotinamide] | 99 |
| COc1ccc(C#N)cc1-c1cc(C)ncc1C(=O)Nc1nc2ccc(C3CCOCC3)nc2s1 [Example 67, 4-(5-cyano-2-methoxyphenyl)-6-methyl-N-(5-(tetrahydro-2H-pyran-4-yl)thiazolo[5,4-b]pyridin-2-yl)nicotinamide] | 64 |
| Cc1cc(-c2cccc3c2OCO3)c(C(=O)Nc2nc3ccc(-c4ccc(C#N)cc4)nc3s2)cn1 [Example 68, 4-(benzo[d][1,3]dioxol-4-yl)-N-(5-(4-cyanophenyl)thiazolo[5,4-b]pyridin-2-yl)-6-methylnicotinamide] | 253 |
| COc1ccccc1-c1cnncc1C(=O)Nc1nc2ccc(Cc3ccc(Cl)cc3)nc2s1 [Example 69, N-(5-(4-chlorobenzyl)thiazolo[5,4-b]pyridin-2-yl)-5-(2-methoxyphenyl)pyridazine-4-carboxamide] | 45 |
| Cc1cc(-c2cccc3c2OCC(=O)N3)c(C(=O)Nc2nc3ccc(-c4ccc(C#N)cc4)nc3s2)cn1 [Example 70, N-(5-(4-cyanophenyl)thiazolo[5,4-b]pyridin-2-yl)-6-methyl-4-(3-oxo-3,4-dihydro-2H-benzo[b][1,4]oxazin-8-yl)nicotinamide] | 193 |
| COc1ccccc1-c1cnncc1C(=O)Nc1nc2ccc(-c3ccc(NC(=O)C4CC4)cc3)nc2s1 [Example 71, N-(5-(4-(cyclopropanecarboxamido)phenyl)thiazolo[5,4-b]pyridin-2-yl)-5-(2-methoxyphenyl)pyridazine-4-carboxamide] | 83 |
| COc1ccccc1-c1cc(C)ncc1C(=O)Nc1nc2ccc(-c3ccc(C#N)cc3)nc2s1 [Example 72, N-(5-(4-cyanophenyl)thiazolo[5,4-b]pyridin-2-yl)-4-(2-methoxyphenyl)-6-methylnicotinamide] | 59 |
| COc1ccc(C#N)cc1-c1cc(C)ncc1C(=O)Nc1nc2ccc(-c3ccc(C(=O)NC(C)C)cc3)nc2s1 [Example 74, 4-(5-cyano-2-methoxyphenyl)-N-(5-(4-(isopropylcarbamoyl)phenyl)thiazolo[5,4-b]pyridin-2-yl)-6-methylnicotinamide] | 73 |
| COc1c(F)cccc1-c1cc(C)ncc1C(=O)Nc1nc2ccc(-c3ccc(C#N)cc3)nc2s1 [Example 75, N-(5-(4-cyanophenyl)thiazolo[5,4-b]pyridin-2-yl)-4-(3-fluoro-2-methoxyphenyl)-6-methylnicotinamide] | 32 |
| COCCOc1ccc2nc(NC(=O)c3cnc(C)cc3-c3cc(C#N)ccc3OC)sc2n1 [Example 77, 4-(5-cyano-2-methoxyphenyl)-N-(5-(2-methoxyethoxy)thiazolo[5,4-b]pyridin-2-yl)-6-methylnicotinamide] | 50 |
| COCc1ccc(-c2ccc3nc(NC(=O)c4cnc(C)cc4-c4cc(C#N)ccc4OC)sc3n2)cc1 [Example 79, 4-(5-cyano-2-methoxyphenyl)-N-(5-(4-(methoxymethyl)phenyl)thiazolo[5,4-b]pyridin-2-yl)-6-methylnicotinamide] | 41 |
| COc1c(C#N)cccc1-c1cc(C)ncc1C(=O)Nc1nc2ccc(-c3ccc(C#N)cc3)nc2s1 [Example 82, 4-(3-cyano-2-methoxyphenyl)-N-(5-(4-cyanophenyl)thiazolo[5,4-b]pyridin-2-yl)-6-methylnicotinamide] | 272 |
| COc1ccc(C#N)cc1-c1cc(C)ncc1C(=O)Nc1nc2ccc(-c3ccc(C(=O)N4CCOCC4)cc3)nc2s1 [Example 84, 4-(5-cyano-2-methoxyphenyl)-6-methyl-N-(5-(4-(morpholine-4-carbonyl)phenyl)thiazolo[5,4-b]pyridin-2-yl)nicotinamide] | 49 |
| COc1ccc(C#N)cc1-c1cc(C)ncc1C(=O)Nc1nc2ccc(-c3ccc(C(=O)N4CCCC4)cc3)nc2s1 [Example 85, 4-(5-cyano-2-methoxyphenyl)-6-methyl-N-(5-(4-(pyrrolidine-1-carbonyl)phenyl)thiazolo[5,4-b]pyridin-2-yl)nicotinamide] | 62 |
| COc1cccc(C)c1-c1cc(C)ncc1C(=O)Nc1nc2ccc(-c3ccc(C#N)cc3)nc2s1 [Example 87, N-(5-(4-cyanophenyl)thiazolo[5,4-b]pyridin-2-yl)-4-(2-methoxy-6-methylphenyl)-6-methylnicotinamide] | 371 |
| COc1ccccc1-c1cnncc1C(=O)Nc1nc2ccc(-c3ccc(C(=O)N4CCCC4)cc3)nc2s1 [Example 88, 5-(2-methoxyphenyl)-N-(5-(4-(pyrrolidine-1-carbonyl)phenyl)thiazolo[5,4-b]pyridin-2-yl)pyridazine-4-carboxamide] | 50 |

The next compounds have a lower IC50 than those just listed; values first:

| IC50 [nM] | Compound |
| --- | --- |
| 24 | COc1ccccc1-c1cnncc1C(=O)Nc1nc2ccc(CCc3ccc(Cl)cc3)nc2s1 [Example 62, N-(5-(4-chlorophenethyl)thiazolo[5,4-b]pyridin-2-yl)-5-(2-methoxyphenyl)pyridazine-4-carboxamide] |
| 15 | CCNC(=O)c1ccc(-c2ccc3nc(NC(=O)c4cnc(C)cc4-c4cc(C#N)ccc4OC)sc3n2)cc1 [Example 73, 4-(5-cyano-2-methoxyphenyl)-N-(5-(4-(ethylcarbamoyl)phenyl)thiazolo[5,4-b]pyridin-2-yl)-6-methylnicotinamide] |
| 5.8 | COc1ccc([N+](=O)[O-])cc1-c1cc(C)ncc1C(=O)Nc1nc2ccc(-c3ccc(C#N)cc3)nc2s1 [Example 76, N-(5-(4-cyanophenyl)thiazolo[5,4-b]pyridin-2-yl)-4-(2-methoxy-5-nitrophenyl)-6-methylnicotinamide] |
| 7.5 | COc1ccc(C#N)cc1-c1cc(C)ncc1C(=O)Nc1nc2ccc(-c3ccc(N4CCCC4=O)c(C)c3)nc2s1 [Example 78, 4-(5-cyano-2-methoxyphenyl)-6-methyl-N-(5-(3-methyl-4-(2-oxopyrrolidin-1-yl)phenyl)thiazolo[5,4-b]pyridin-2-yl)nicotinamide] |
| 26 | COc1ccc(C#N)cc1-c1cc(C)ncc1C(=O)Nc1nc2ccc(-c3ccc(C(C)(C)O)cc3)nc2s1 [Example 80, 4-(5-cyano-2-methoxyphenyl)-N-(5-(4-(2-hydroxypropan-2-yl)phenyl)thiazolo[5,4-b]pyridin-2-yl)-6-methylnicotinamide] |
| 7.7 | COc1ccccc1-c1cnncc1C(=O)Nc1nc2ccc(-c3ccc(S(C)(=O)=O)cc3)nc2s1 [Example 81, 5-(2-methoxyphenyl)-N-(5-(4-(methylsulfonyl)phenyl)thiazolo[5,4-b]pyridin-2-yl)pyridazine-4-carboxamide] |
| 6.2 | COc1ccccc1-c1cnncc1C(=O)Nc1nc2ccc(-c3ccc(C#N)cc3)nc2s1 [Example 83, N-(5-(4-cyanophenyl)thiazolo[5,4-b]pyridin-2-yl)-5-(2-methoxyphenyl)pyridazine-4-carboxamide] |
| 7.4 | COc1ccc(C#N)cc1-c1cc(C)ncc1C(=O)Nc1nc2ccc(-c3ccc(C(=O)N(C)C)cc3)nc2s1 [Example 86, 4-(5-cyano-2-methoxyphenyl)-N-(5-(4-(dimethylcarbamoyl)phenyl)thiazolo[5,4-b]pyridin-2-yl)-6-methylnicotinamide] |
| 23 | COc1ccc(C#N)cc1-c1cc(C)ncc1C(=O)Nc1nc2ccc(-c3ccc(N(C)S(C)(=O)=O)c(C)c3)nc2s1 [Example 89, 4-(5-cyano-2-methoxyphenyl)-6-methyl-N-(5-(3-methyl-4-(N-methylmethylsulfonamido)phenyl)thiazolo[5,4-b]pyridin-2-yl)nicotinamide] |
